Measured values: US12421271B2, “Solid forms of (2S,3S,4S,5R,6S)-3,4,5-trihydroxy-6-(((4AR, 10AR)-7-hydroxy-1-propyl-1,2,3,4,4A,5,10,10A-octahydrobenzo[g]quinolin-6-yl)oxy)tetrahydro-2H-pyran-2-carboxylic acid” (H. Lundbeck A/S, priority 2019, dated 2025)
Where two headings read alike, the source gives them in different places. Values belong to the compound of their own block, whether it stands above or below them.

Columns and labels:
human 5-HT2B receptor = biological target: T1, human 5-HT2B receptor (Homo sapiens, UniProt P41595); assay: 5-HT2B agonist activity assay, IP1 production (HTRF) in CHO cells; format: cell-based
T1 construct: host or cells: CHO
Protocol: Evaluation of the agonist activity of compounds (I), (Ia) and (Ib) at the human 5-HT2B receptor was performed by Eurofins/Cerep (France) measuring the compound effects on inositol monophosphate (IP1) production using the HTRF detection method. Briefly, the human 5-HT2B receptor was expressed in transfected CHO cells. The cells were suspended in a buffer containing 10 mM Hepes/NaOH (pH 7.4), 4.2 mM KCl, 146 mM NaCl, 1 mM CaCl2, 0.5 mM MgCl2, 5.5 mM glucose and 50 mM LiCl, then distributed in microplates at a density of 4100 cells/well and incubated for 30 minutes at 37° C. in the presence of buffer (basal control), test compound or reference agonist. For stimulated control measurement, separate assay wells contained 1 μM 5-HT. Following incubation, the cells were lysed and the fluorescence acceptor (fluorophen D2-labeled IP1) and fluorescence donor (anti-IP1 antibody labeled with europium cryptate) were added. After 60 minutes at room temperature, the fluorescence transfer was measured at lambda(Ex) 337 nm and lambda(Em) 620 and 665 nm using a microplate reader (Rubystar, BMG). The IP1 concentration was determined by dividing the signal measured at 665 nm by that measured at 620 nm (ratio). The results were expressed as a percent of the control response to 1 μM 5-HT. […]

[1] = PK experiments in Wistar rats, plasma compound (I) after oral dosing of prodrugs; format: in vivo, rat; settings: FIG. 1, doses equal to 287 μg/kg of compound (I)
Protocol: Plasma was placed on water-ice following collection. Final storage at approximately −70° C.
Mobile phase B: Acetonitrile. […] Flow rate 0.5 mL/min.
The rats had unrestricted access to the diet.
Mobile phase B: Acetonitrile+0.2% formic acid. […] Flow rate 0.3 mL/min.
Dosing and blood sampling for compound (Ic): Han Wistar rats were supplied by Envigo, UK. […] The rats received a standard laboratory diet Teklad 2014C. The rats had unrestricted access to the diet.

[2] = Liu et al., Bioorganic Med. Chem. (2008); rats; cited from earlier work
human hepatocytes = assay: Conversion of compound (Id) to compound (I) in human hepatocytes; format: in vitro ADME; settings: 1 μg/mL, 37° C., 0.25-60 minutes
Protocol: (§1) The cell concentration at incubation was 1×10^6 viable cells/mL. The incubations were performed in glass tubes at 37° C. with a total incubation volume of 3.5 mL and with duplicate incubations for each test item. The 3.5 mL of hepatocyte suspension was equilibrated for 10 minutes in a water bath set to 37° C. where after the incubations were initiated by adding 3.5 μL of a stock solution of the test item in DMSO (Dimethyl sulfoxide) and gently inverting the tubes. The final solvent concentration in the incubations was 0.1% DMSO. Samples of 600 μL were withdrawn from the incubations at the pre-determined time points of 0.25, 5, 15, 30 and 60 minutes after ensuring homogeneity of hepatocyte suspensions. The withdrawn volume was added to 1 mL Nunc cryo tubes on wet ice containing 60 μL of ice-cold ascorbic acid (100 mg/mL) and 30 μL of ice cold 100 mM saccharic acid 1,4-lactone in 0.5 M citric acid. The tubes were mixed and 35 μL of a solution of ice cold 20% formic acid was added. The tubes were mixed thoroughly and stored at −80° C. awaiting analysis.

[3] = Oral dosing of compound (Id) in minipigs; format: in vivo, minipig
rat locomotor activity = assay: Rat locomotor activity (hyperactivity) assay, open field, with PK/PD; format: in vivo
Protocol: Mass spectrometer (UPCLC-MS/MS) Waters Acquity I-Class-Waters Xevo TQ-S. Analytical column Acquity HSS T3 C18 50×2.1 mm, 1.8 μm. Mobile phase A: 10 mM NH4—Formate 0.2% formic acid:Acetonitril (95:5). Mobile phase B: 10 mM NH4—Formate 0.2% formic acid:Acetonitril (5:95). Gradient run from 95/5% to 5/95% in 2.40 minutes. Flow rate 0.3 mL/min. MRM detection of test items and the added analytical standards.
Animals for the study were as described in Example 10. Additionally, rats were administered a single dose of apomorphine subcutaneously.
In total, 206 male CD rats (Charles River, Germany) weighing 200-250 grams (165-190 grams upon arrival) were used in the study. Animals were housed at a standard temperature (22±1° C.) and in a light-controlled environment (lights on from 7 am to […]) with ad libitum access to food and water. The experiment described below was performed in accordance with the standard operating procedures of Charles River Discovery Research Services Finland Ltd. and in accordance with the national Animal Experiment Board of Finland (Eläinkoelautakunta, ELLA) authority on animal testing.
The test device is a square Plexiglass-arena (measuring 40×40×40 cm), in which the movement paths of the rats are recorded by an activity monitor (Med. Associates Inc.). Before the test period is initiated, rats are habituated to their test cage for 60 minutes. Upon completion of habituation, animals were treated with either compound or vehicle and placed back into the open field apparatus. The main test parameter measured is ambulatory distance (recorded in 5-minute segments). Overall time of measurement after receiving initial treatment was 360 minutes. Total follow up period in the study was 420 min, including 60 min of habituation.

[4] = Conversion of (Id) to (I) in fresh human blood; format: in vitro ADME; settings: 1 μg/mL, 37° C., 0-60 minutes
Protocol: (§2) Conversion of (Id) in human blood (average of 3 donors) and rat blood (average of 45 donors) to (I) was shown in fresh blood at 37° C. spiked with 1 μg/mL of (Id). (I) was measured at 0, 5, 15, 30 and 60 minutes in isolated plasma. Analysis method and Instrumentation as described in Examples 9 and 10 below in the section “Instrumentation used for analysis of compound (l) from dosing of compounds (Ic) and (Id).”

[5] = Conversion of (Id) to (I) in fresh rat blood; format: in vitro ADME; settings: 1 μg/mL, 37° C., 0-60 minutes
Protocol: as §2

rat hepatocytes = assay: Conversion of compound (Id) to compound (I) in rat hepatocytes; format: in vitro ADME; settings: 1 μg/mL, 37° C., 0.25-60 minutes
Protocol: as §1

[6] = pKa values / major species of ionization; format: physicochemical
[7] = man, after oral dosing; cited from earlier work

T1 sequence (P41595 whole entry): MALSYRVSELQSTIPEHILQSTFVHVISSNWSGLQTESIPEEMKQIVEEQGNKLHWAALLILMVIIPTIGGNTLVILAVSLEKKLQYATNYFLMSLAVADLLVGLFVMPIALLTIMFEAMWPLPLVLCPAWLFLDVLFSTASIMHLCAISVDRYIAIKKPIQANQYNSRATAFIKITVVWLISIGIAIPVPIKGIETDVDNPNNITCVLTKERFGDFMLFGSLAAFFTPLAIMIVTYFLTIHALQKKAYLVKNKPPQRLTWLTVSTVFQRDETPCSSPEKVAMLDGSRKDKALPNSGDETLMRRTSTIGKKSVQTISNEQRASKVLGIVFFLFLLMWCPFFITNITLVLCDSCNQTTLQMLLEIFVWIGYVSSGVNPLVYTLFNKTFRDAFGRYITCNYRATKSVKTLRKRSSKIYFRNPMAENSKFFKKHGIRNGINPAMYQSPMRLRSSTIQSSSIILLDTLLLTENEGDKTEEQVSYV

SMILES: CCCN1CCC[C@@H]2CC3=C(CCCC3=O)C[C@H]21 [(Ia)]
5-HT2B agonist effect at single concentration (human 5-HT2B receptor; @ 30 μM, percent of control response to 1 μM 5-HT): 58% @ 30 μM
Plasma profile of compound (I) after oral dosing, in words [1]: early and high peak concentrations

SMILES: CCCN1CCC[C@@H]2Cc3c(ccc(OC(=O)C(C)(C)C)c3OC(=O)C(C)(C)C)C[C@H]21 [(Ic)]
5-HT2B agonist effect at single concentration (human 5-HT2B receptor; @ 10 μM): −5% @ 10 μM
Plasma profile of compound (I) after oral dosing, in words [1]: extremely low

SMILES: CCCN1CCC[C@@H]2Cc3c(ccc(O)c3O)C[C@H]21 [Compound (I), (4aR,10aR)-1-Propyl-1,2,3,4,4a,5,10,10a-octahydro-benzo[g]quinoline-6,7-diol]
Oral bioavailability, in words [2]: low oral bioavailability

Conversion to compound (I) (human hepatocytes): time dependent conversion
Conversion to compound (I) [4]: time dependent conversion
Conversion to compound (I) [5]: time dependent conversion
Conversion to compound (I) (rat hepatocytes): time dependent conversion
pKa ([6]; anion / dianion boundary pH, read-out: pKa (third), boundary between major species of ionization): 10.1
pKa ([6]; cation / zwitterion boundary pH, read-out: pKa (first), boundary between major species of ionization): 2.8
pKa ([6]; zwitterion / anion boundary pH, read-out: pKa (second), boundary between major species of ionization): 8.8
SMILES: CCCN1CCC[C@@H]2Cc3c(ccc(O)c3O[C@@H]3O[C@H](C(=O)O)[C@@H](O)[C@H](O)[C@H]3O)C[C@H]21 [Compound (Id), (2S,3S,4S,5R,6S)-3,4,5-trihydroxy-6-(((4aR,10aR)-7-hydroxy-1-propyl-1,2,3,4,4a,5,10,10a-octahydrobenzo[g]quinolin-6-yl)oxy)tetrahydro-2H-pyran-2-carboxylic acid]
In vivo conversion to compound (I) [3]: In vivo conversion of compound (Id) to compound (I) has also been observed
Relationship of behavioral effect and plasma concentration (rat locomotor activity; (Id) 100 μg/kg p.o. (FIG. 4), apomorphine 3 mg/kg s.c. (FIG. 5)): correlate with the plasma concentrations of compound (I)
Duration of locomotor effect, in words (rat locomotor activity; (Id) 10 to 300 μg/kg p.o., recording to the 415-minute time point): lasting until the end of recording
Total distance travelled, in words (rat locomotor activity; FIG. 3, (Id) 10, 30, 100 or 300 μg/kg p.o., apomorphine 3 mg/kg s.c., pramipexole 0.3 mg/kg s.c., vs vehicle): significantly increased activity
Plasma profile of compound (I) after oral dosing, in words [1]: slower absorption rate avoiding rapid peak concentrations accompanied by a sustained exposure

SMILES: CCCc1cc2c(s1)CN[C@@H]1CCc3cc(OC(C)=O)c(OC(C)=O)cc3[C@@H]21 [adrogolide]
Oral bioavailability [7]: ~4%
